Test results published in patent US20150119251A1, “AGRICULTURAL PLANT-PROTECTING AGENTS CONTAINING DIPEPTIDE DERIVATIVE AS ACTIVE INGREDIENT” (REPUBLIC OF KOREA (RURAL DEVELOPMENT ADMINISTRATION), priority 2012, published 2015).
Square brackets hold non-standard residues; d marks the D form. Peptide text beside a SMILES is read from it. * marks the point of attachment. Trt = c1ccc(C(c2ccccc2)(c2ccccc2)*)cc1; Boc = CC(C)(C)OC(=O)*

Experiments:
[1] = test system: GUS gene induced by PR-1α disease-resistance promoter; test: PR-1a GUS activation on tobacco leaves (MUG fluorescence); type: in vivo, tobacco (Xanth-nc); settings: tobacco leaf injection, after three days
Method: After the tobacco (Xanth-nc) bound with GUS gene induced by PR-1α disease-resistance promoter was grown for 3 weeks, 100 μL of the diluted solution of Compound 74 was injected to second leaves with a syringe. After three days, the surrounding leaves were collected in an internal diameter size of 5 mm with a cork borer, the samples thus obtained were added to a 1.5 mL of an eppendorf tube, and 20 μL of GUS extraction buffer solution was further added, ground, and then centrifuged at 8000 G for 3 minutes to obtain supernatant. The same amount of 2 mM MUG (4-methyl umbellifryl-B-glucuronide) solution was added, reacted at 37° C. for 1 hour, and then 960 μL of stop buffer solution (0.2 M, Na2CO3 solution) was added to be 1 mL. Since then, the fluorescence was measured with a TKO 100 fluorometer (Hoefoer Scientific Instruments, USA). At this time, the fluorescence amount was calibrated using a MU (4-methyl umbellyferon) as a standard reagent, and the GUS activity was calculated using MU-mM/sample−10 mg/time. The results thus obtained are listed in the following Table 2 and illustrated in FIG. 2.

[2] = test system: pepper phytophthora blight (Phytopthora capsici); test: Suppression of pepper phytophthora blight on leaves; type: in vivo; settings: 0.1 mM
[3] = test system: tobacco bacterial rot (Pectobacterium carotovorum); test: Suppression of tobacco bacterial rot; type: in vivo, Pectobacterium carotovorum SCC1
In short: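 Test compounds at 1, 10 and 100 ppm (from 20% methanol stock) were applied to tobacco leaves; 7 days later plants were sprayed with Pectobacterium carotovorum SCC1 at 10^8 cfu/mL and kept 3 days at 30° C. Lesion area scored visually as 0–100%.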

[4] = test system: anthracnose germ (Colletotrichum orbiculare); test: Suppression of anthracnose on cucumber leaves by seed treatment; type: in vivo; settings: seeds treated at 100 ppm for 2 hours, spores sprayed after 3 weeks, read after 7 days, FIG. 4
Method: Compound 61 or Compound 74 were deposited on the seeds of cucumbers in the concentration of 100 ppm for 2 hours, and after 3 weeks, the spores of anthracnose germ (Colletotrichum orbiculare) were sprayed in the concentration of 10^5 spore/mL thereto, and then, after 7 days, the disease outbreak was investigated. The results thus obtained are illustrated in the photographs of FIG. 4.

[5] = test system: PR1, PR4, PR10, beta-1,3-glucanase, chitinase and peroxidase genes; test: Expression of defense genes in pepper plant (RT-PCR) after compound treatment and pathogen inoculation; type: in vivo; settings: pepper seedling, compound treated and then P. carotovora or P. capsici treated, FIG. 1
Excerpt: In order to testify the disease resistance expression in the case of treating the dipeptide derivative of the present invention to the seeding of pepper, PR-1, beta-1,3-glucanase, chitinase, PR4, peroxidase, and PR10 primer, and the seedling of pepper were used. The seedling of pepper was raised in a greenhouse for 4 weeks, Compounds were sprayed thereto in various concentrations, and then, after three or one week, phytophthora (Phytophthora capcisi) and the pathogen of a bacterial rot (Pectobacterium carotovorum) were respectively inoculated.
Since then, after 12, 24, and 48 hours, the respective pepper leaves were collected in an amount of 1 g, and then, stored at an ultralow temperature-room at […]. The stored plant leaves were pulverized along with liquid nitrogen, and then, […] was extracted by using a RNA extraction kit (Easy-Spin™IIP Total RNA Extraction Kit, Intron Biotechnology, Korea) and Ex Taq polymerase by Kishimoto et al. (2005) (Takara Biomedicals, Otsu, Japan). For amplification, 0.1 μg of cDNA, 10 pMol of each of forward and reverse primers, 250 nM of dNTPs, and 0.5 U of Ex Taq polymerase were added to 20 μl, of a buffer solution. PCR was performed at 94C and 58C in a thermal cycler (PTC-100, USA), and the products by PCR were analyzed under the condition of 1% agarose gel (in 0.5×TAE buffer) (80 V, 60 min). All the RT-PCR tests were repeated twice. […]

[6] = test system: pepper phytophthora blight (Phytopthora capsici); test: Suppression of pepper phytophthora blight on leaves; type: in vivo; settings: for Lesion outbreak rate: pepper leaves
Method: (§1) The peppers were raised in the same method as Example 3, and then, the test compounds were dissolved in 20% methanol to make a stock solution, and a stock was diluted to the concentrations of 0.1, 1.0, and 10.0 ppm. The test solutions were sprayed on the leaves or drench-treated on the leaves. After 7 days, the pathogen of plant bacterial rot (Pectobacterium carotovorum SCC1) was cultured in a TSA medium for 27 hours, and then, wetted on an 8 mm diameter paper disc in the concentration of 10^8 cfu/mL. The paper disc was located in the center of the leaves that were cut roundly, and then, after about 7 days, the lesion area was measured. In the case of phytophthora, the potato agar medium cultured with the phytophthora (Phytophthora capsici) was cut in the internal diameter size of 5 mm with a cork borer, and then inoculated to the leaves. After 7 days, the lesion area was observed. In the case of a bacterial rot, when Compounds 6, 89, 93, and 95 were sprayed on the pepper leaves, the bacterial rot was not found in the concentration of 1 or 10 ppm as compared with the non-treated group. […] The Suppression of lesion formation on the leaves when these compounds were drench-treated to the roots can be explained as it was resulted from that systemic disease resistance was induced in the whole plant. These test results are illustrated in the photographs of FIGS. 5 to 9.

Phytophthora capsici = test: Suppression of phytophthora blight in pepper roots and leaves after drench inoculation; type: in vivo; settings: sprayed on leaves, roots drench-inoculated after 1 week, observed 7 days, FIG. 10
Excerpt: The peppers were raised in the same method as Example 3, Compound 85 was sprayed on the leaves, and then after 1 week, the Phytophthora capsici swarm suspension was drench-inoculated. While observing for 7 days, the lesion formation on the leaves and roots were investigated. […] The test results of Compound 85 on suppressing the outbreak of phytophthora blight are illustrated in FIG. 10.

[7] = test system: plant bacterial rot (Pectobacterium carotovorum SCC1); test: Suppression of bacterial rot on pepper leaves (paper disc on cut leaves); type: in vivo; settings: sprayed on the pepper leaves, 1 or 10 ppm
Method: as §1

SMILES | Lesion outbreak rate ([3]; Table 5, tobacco, 10 ppm) [%] | Lesion outbreak rate ([3]; Table 5, tobacco, 100 ppm) [%] | Lesion outbreak rate ([3]; Table 6, tobacco, 1 ppm) [%] | Lesion outbreak rate ([3]; Table 6, tobacco, 10 ppm) [%] | Lesion outbreak rate ([3]; Table 6, tobacco, 100 ppm) [%] | Anthracnose on the leaves of cucumber as compared with the non-treated group [4] | Expression of the genes of PR1, PR4, PR10, beta-1,3-glucanase, chitonase and peroxidase [5] | Lesion outbreak rate ([6]; 0.1 ppm) [area %] | Lesion outbreak rate ([6]; 1.0 ppm) [area %] | further results
CSC(=O)c1cccc2nnsc12 [BTH, benzo-1,2,3-thiadiazole-7-carbothio acid S-methyl ester, reference compound] | 25 | 25 | 100 | 100 | 100 |  |  |  |  | PR1a GUS expression ([1]; 0.1 mM): 324,000 nM MU/10 mg FW/1 hr; Lesion outbreak rate [2]: 17 area %; Lesion outbreak rate ([3]; Table 3, tobacco, 1 ppm): 90%; Lesion outbreak rate ([3]; Table 3, tobacco, 10 ppm): 90%; Lesion outbreak rate ([3]; Table 3, tobacco, 100 ppm): 90%; Lesion outbreak rate ([3]; Table 4, tobacco, 1 ppm): 88%; Lesion outbreak rate ([3]; Table 4, tobacco, 10 ppm): 88%; Lesion outbreak rate ([3]; Table 4, tobacco, 100 ppm): 88%
COC(=O)[C@@H]1CCCN1C(=O)[C@H](CSC(c1ccccc1)(c1ccccc1)c1ccccc1)NC(=O)OC(C)(C)C [Compound 61] (Boc-Cys(Trt)-Pro-OMe) | 20 | 16 |  |  |  | hardly found |  |  |  | 
COC(=O)[C@H]1CCCN1C(=O)[C@H](CSC(c1ccccc1)(c1ccccc1)c1ccccc1)NC(=O)OC(C)(C)C [Compound 74] (Boc-Cys(Trt)-[dP]-OMe) |  |  | 25 | 34 | 22 | hardly found |  |  |  | PR1a GUS expression ([1]; 0.1 ppm): 7,800 nM MU/10 mg FW/1 hr; PR1a GUS expression ([1]; 1.0 ppm): 15,000 nM MU/10 mg FW/1 hr; PR1a GUS expression ([1]; 10.0 ppm): 420,000 nM MU/10 mg FW/1 hr; PR1a GUS expression ([1]; 100.0 ppm): 860,000 nM MU/10 mg FW/1 hr
CCOC(=O)C(C)NC(=O)C(NC(=O)OC(C)(C)C)C(C)CC (stereo not shown) [Compound 80] |  |  |  |  |  |  | strongly expressed | 14 | 8.9 | 
CCC(C)C(NC(=O)OC(C)(C)C)C(=O)N1CCCC1C(=O)OC (stereo not drawn) [Compound 85] (Boc-Ile-Pro-OMe; configuration not given here) |  |  |  |  |  |  |  | 24 | 15 | Phytophthora blight (lesion formation) on the leaves and roots as compared with the control group (Phytophthora capsici): significantly suppressed
COC(=O)[C@H](Cc1ccccc1)NC(=O)[C@@H](N)CC(=O)O [Compound 89] (H-Asp-Phe-OMe) |  |  |  |  |  |  | strongly expressed | 9.3 | 2.3 | Bacterial rot on pepper leaves as compared with the non-treated group [7]: not found; Effect on suppressing the outbreak of pepper phytophthora blight or bacterial rot as compared with the non-treated control group ([6]; directly sprayed to the leaves, phytophthora blight or bacterial rot): excellent; Lesion formation, pepper phytophthora test ([6]; drench-treated, 1.0 or 10.0 ppm): no the lesion formations; Effect on suppression of the outbreak of pepper phytophthora blight as compared with the control drug BTH ([6]; in vivo): excellent effect
